Patent publication US10792384B2, “Rolled fibrous structures comprising encapsulated malodor reduction compositions” (The Procter & Gamble Company, priority 2017, dated 2020)

Assay: Blocker Index (BI), expert graders smelling isovaleric acid swatches treated with test material
Conditions: test material 50 ppm on swatch with 20 μL 0.08% isovaleric acid, scale 0-3
Text: Blocker materials suitable for use in consumer products of the present invention are chosen for their ability to decrease malodor, while not interfering with perception of a fragrance. Material selection is done by assigning two indices to a test sample material from two reference scales in order to rank odor strengths. The two reference scales are the Fragrance Fidelity Index (FFI) scale and the Blocker Index (BI) scale. The FFI ranks the ability of the test sample material to impart a perceivable odor which could cause interference when combined with another fragrance and the BI ranks the ability of the test sample material to reduce malodor perception. The two methods for assigning the indices to a test sample on the FFI and the BI reference scales are given below.
The first step in the method for assigning a BI to a test sample material on the BI reference scale is to create the BI reference swatches. […] Fabric swatches for this test are white knit polycotton (4 inch×4 inch) swatches from EMC ordered as PC 50/50. The supplier is instructed to strip the swatches first, stripping involves washing twice with a fragrance-free detergent and rinsing three times.
The BI scale contains one clean swatch with no malodor applied. […] These solutions are pipetted to the middle of the swatches. […]

With C=C/C(C)=C\CC=C(C)C [Material 524] the BI was 2.8.
